The values below come from US10703756B2, “Pyrrolo[2,3-D]pyrimidinyl, pyrrolo[2,3-B]pyrazinyl, pyrrolo[2,3-B]pyridinyl acrylamides and epoxides thereof” (Pfizer Inc., priority 2015, dated 2020).

Test [1] deals with IL-15 induced STAT5 phosphorylation in human whole blood lymphocytes. Briefly: HWB IL-15 Induced STAT5 Phosphorylation Assay. The conditions noted are these: Lymphocyte, IL-15 final 50 ng/ml, read-out: HWB_IL15 pSTAT5 IC50. The format is cell-based. The essentials: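 Heparinised human whole blood preincubated with compound (0.2% DMSO final) 45 min at 37° C, then stimulated with human IL-15 (50 ng/ml final) for 15 min. After lyse/fix and Perm Buffer III permeabilisation, stained overnight at 4° C with AlexaFluor647 anti-phospho-STAT5; read by flow cytometry gated on total lymphocytes.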

In test [2] the test system is IL-15 induced P-STAT5 in human PBMC. In words: PBMC IL-15 Induced P-STAT5. The test is classed as cell-based. To be noted: human PBMC, IL-15 final 41 ng/mL; read-out: PBMC IL15_pSTAT5_IC50. The essentials: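 Flow cytometry gated on total lymphocytes measured STAT5 staining (Alexa Fluor 647 antibody, overnight, 4 °C) in fixed, methanol-permeabilised human PBMC. Cells had received compound for 15 min at 37 °C (0.2% DMSO final), followed by 41 ng/mL final human IL-15 for 15 min.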

Consider `C=CC(=O)N1C[C@H](Nc2ncnc3[nH]ccc23)CC[C@@H]1CNC(C)=O` (racemic) [Example 88, rac-N-(((2R,5R)-5-((7H-pyrrolo[2,3-d]pyrimidin-4-yl)amino)-1-acryloylpiperidin-2-yl)methyl)acetamide], for which the IC50 in test [1] amounted to 5050 nM; in test [2] it was 3450 nM.

Regarding `C=CC(=O)N1CC[C@@H](Oc2cnc3[nH]cc(C(=O)N[C@@H](C)COC)c3n2)C[C@@H]1C` (single isomer, unassigned) [Example 73], the IC50 came to 738 nM in test [1] and 174 nM in test [2].

As to `C=CC(=O)N1CCN(c2cnc3[nH]cc(C(=O)N[C@@H](C)COC)c3n2)CC1(C)C` [Example 298, 2-(4-acryloyl-3,3-dimethylpiperazin-1-yl)-N-[(2S)-1-methoxypropan-2-yl]-5H-pyrrolo[2,3-b]pyrazine-7-carboxamide], the IC50 in test [1] was 1280 nM; in test [2] it was 210 nM.

With `C=CC(=O)N1CCC(Nc2cnc3[nH]cc(C(=O)NCc4ccc(F)c(C#N)c4)c3n2)CC1` [Example 189, 2-[(1-acryloylpiperidin-4-yl)amino]-N-(3-cyano-4-fluorobenzyl)-5H-pyrrolo[2,3-b]pyrazine-7-carboxamide], the IC50 in test [1] came to 1140 nM; in test [2], 203 nM.

Regarding `C=CC(=O)N1C[C@H](COCCC#N)C[C@H](Nc2ncnc3[nH]ccc23)C1` [Example 101, 3-{[(3R,5S)-1-Acryloyl-5-(7H-pyrrolo[2,3-d]pyrimidin-4-ylamino)piperidin-3-yl]methoxy}propanenitrile], the IC50 was 703 nM in test [1] and 227 nM in test [2].

Take `C=CC(=O)N1CC[C@@H](Nc2cnc3[nH]cc(C(=O)NCC)c3n2)C[C@@H]1C` (single isomer, unassigned) [Example 42]: the values for the IC50 in test [1] and in test [2] were 1060 nM and 357 nM, respectively.

In the case of `C=CC(=O)N1CCC(Oc2cnc3[nH]cc(C(=O)N[C@@H]4CCC[C@H]4F)c3n2)CC1` [Example 229, 2-[(1-acryloylpiperidin-4-yl)oxy]-N-[(1R,2R)-2-fluorocyclopentyl]-5H-pyrrolo[2,3-b]pyrazine-7-carboxamide], the IC50 came out at 2390 nM in test [1] and 221 nM in test [2].

As to `C=CC(=O)N1CCC(Oc2cnc3[nH]cc(C(=O)NC(C)C4CC4)c3n2)CC1` (racemic) [Example 220, Racemic-2-[(1-acryloylpiperidin-4-yl)oxy]-N-(1-cyclopropylethyl)-5H-pyrrolo[2,3-b]pyrazine-7-carboxamide], the IC50 in test [1] is 1070 nM; in test [2], 100 nM.

`C=CC(=O)N1CCC(Oc2cnc3[nH]cc(C(=O)N[C@@H](C)COC)c3n2)CC1` [Example 228, 2-[(1-acryloylpiperidin-4-yl)oxy]-N-[(2S)-1-methoxypropan-2-yl]-5H-pyrrolo[2,3-b]pyrazine-7-carboxamide]: the IC50 in test [1] stood at 378 nM; in test [2] it was 93.3 nM.

As to `C=CC(=O)N1CCN(c2cnc3[nH]cc(C(=O)N[C@H](C)COC)c3n2)CC1(C)C` [Example 327], the IC50 in test [1] was determined as 1040 nM; in test [2], 261 nM.

As to `C=CC(=O)N1CC[C@@H](Nc2cnc3[nH]cc(C(=O)NCC)c3n2)[C@@H](C)C1` (racemic) [Example 37, Cis-racemic-2-{[(3S,4R)-1-acryloyl-3-methylpiperidin-4-yl]amino}-N-ethyl-5H-pyrrolo[2,3-b]pyrazine-7-carboxamide], the IC50 in test [1] amounted to 1940 nM; in test [2], 676 nM.

Turning to `C=CC(=O)N1CCC(Oc2cnc3[nH]cc(C(=O)NC45CC(C4)C5)c3n2)CC1` [Example 200, 2-[(1-acryloylpiperidin-4-yl)oxy]-N-(bicyclo[1.1.1]pent-1-yl)-5H-pyrrolo[2,3-b]pyrazine-7-carboxamide], the IC50 worked out at 1520 nM in test [1] and 149 nM in test [2].

Regarding `C=CC(=O)N1CCC(Oc2cnc3[nH]cc(C(=O)NC4CCCC4(F)F)c3n2)CC1` (stereo not shown) [Example 219, 2-[(1-acryloylpiperidin-4-yl)oxy]-N-(2,2-difluorocyclopentyl)-5H-pyrrolo[2,3-b)pyrazine-7-carboxamide], the IC50 came out at 889 nM in test [1] and 134 nM in test [2].

Regarding `C=CC(=O)N1CC[C@H](Nc2cnc3[nH]cc(C(=O)NCC)c3n2)C[C@H]1C` (racemic) [Example 40, Trans-racemic-2-{[(2R,4S)-1-acryloyl-2-methylpiperidin-4-yl]amino}-N-ethyl-5H-pyrrolo[2,3-b]pyrazine-7-carboxamide], the IC50 in test [1] came to 842 nM; in test [2], 134 nM.

For `C=CC(=O)N1CC[C@@H](Nc2cnc3[nH]cc(C(=O)N[C@H](C)COC)c3n2)[C@@H](OC)C1` [Example 331, 2-{[(3S,4R)-1-acryloyl-3-methoxypiperidin-4-yl]amino}-N-[(2R)-1-methoxypropan-2-yl]-5H-pyrrolo[2,3-b]pyrazine-7-carboxamide], the IC50 in test [1] was 263 nM; in test [2] it was 288 nM.

On to `C=CC(=O)N1CCC(Oc2cnc3[nH]cc(C(=O)NC4CCCC4)c3n2)CC1` (racemic) [Example 204, Racemic-2-[(1-acryloylpiperidin-4-yl)oxy]-N-cyclopentyl-5H-pyrrolo[2,3-b]pyrazine-7-carboxamide], for which the figures for the IC50 in test [1] and in test [2] were 1390 nM and 130 nM, respectively.

Regarding `C=CC(=O)N1CCC(Oc2cnc3[nH]cc(C(=O)N[C@H](C)CC)c3n2)CC1` [Example 227, 2-[(1-acryloylpiperidin-4-yl)oxy]-N-[(2R)-butan-2-yl]-5H-pyrrolo[2,3-b]pyrazine-7-carboxamide], the values for the IC50 in test [1] and in test [2] were 682 nM and 146 nM, respectively.

`C=CC(=O)N1CCC(Oc2cnc3[nH]cc(C(=O)N[C@@H](C)CC)c3n2)CC1` [Example 205, 2-[(1-acryloylpiperidin-4-yl)oxy]-N-[(2S)-butan-2-yl]-5H-pyrrolo[2,3-b]pyrazine-7-carboxamide]: the IC50 in test [1] is 513 nM; in test [2], 92.3 nM.

For `C=CC(=O)N1CCC(Oc2cnc3[nH]cc(C(=O)N[C@@H]4CCC[C@@H]4F)c3n2)CC1` [Example 230, 2-[(1-acryloylpiperidin-4-yl)oxy]-N-[(1R,2S)-2-fluorocyclopentyl]-5H-pyrrolo[2,3-b]pyrazine-7-carboxamide], the IC50 turned out to be 1710 nM in test [1] and 155 nM in test [2].

For the compound `C=CC(=O)N1CC[C@@H](Oc2cnc3[nH]cc(C(=O)NCC)c3n2)[C@H](C)C1` (single isomer, unassigned) [Example 47], the IC50 was 3580 nM in test [1] and 363 nM in test [2].

In the case of `C=CC(=O)N1C[C@@H](CF)C[C@@H](Nc2ncnc3[nH]ccc23)C1` (single isomer, unassigned) [Example 103], the IC50 in test [1] was determined as 659 nM; in test [2] it was 155 nM.

As for `C=CC(=O)N1C[C@@H](CC#N)C[C@@H](Nc2ncnc3[nH]ccc23)C1` (single isomer, unassigned) [Example 106], the figures for the IC50 in test [1] and in test [2] were 287 nM and 192 nM, respectively.

On to `C=CC(=O)N1CCC(Nc2cnc3[nH]cc(C(=O)NCCC4CC4)c3n2)CC1` [Example 178, 2-[(1-acryloylpiperidin-4-yl)amino]-N-(2-cyclopropylethyl)-5H-pyrrolo[2,3-b]pyrazine-7-carboxamide], for which the IC50 turned out to be 360 nM in test [1] and 88.6 nM in test [2].

Consider `C=CC(=O)N1CC[C@@H](Oc2cnc3[nH]cc(C(=O)NCC)c3n2)C[C@@H]1C` (single isomer, unassigned) [Example 79], for which the figures for the IC50 in test [1] and in test [2] were 2710 nM and 264 nM, respectively.

Turning to `C=CC(=O)N(C)C1CN(c2cnc3[nH]cc(C(=O)N[C@H](C)COC)c3n2)C1` [Example 86, 2-{3-[acryloyl(methyl)amino]azetidin-1-yl}-N-[(2R)-1-methoxypropan-2-yl]-5H-pyrrolo[2,3-b]pyrazine-7-carboxamide], the IC50 in test [1] came to 2920 nM; in test [2] it was 260 nM.

On to `C=CC(=O)N1CCC(N(C)c2cnc3[nH]cc(C(=O)NC(C)C)c3n2)CC1` [Example 64, 2-[(1-acryloylpiperidin-4-yl)(methyl)amino]-N-(propan-2-yl)-5H-pyrrolo[2,3-b]pyrazine-7-carboxamide], for which the values for the IC50 in test [1] and in test [2] were 3130 nM and 228 nM, respectively.
